Laboratory results reported in patent US8426408B2, “Pyrimidine inhibitors of kinases” (AbbVie Inc., priority 2009, dated 2013).

Columns and labels:
Format in all cases: biochemical
KDR = KDR (Homo sapiens, UniProt P35968); test: KDR HTRF in vitro kinase assay; set-up: purified enzyme (His6-KDR 789-1354, MW 63 kD); His6 (N); conditions: 1 mM ATP; read-out: KDR enzyme inhibition data (Ki)
Protocol: To determine the activity of the various kinases, a homogenous time-resolved fluorescence (HTRF) in vitro kinase assay was used. (Mathis, G., HTRF® Technology. J Biomol Screen, 1999. 4(6): p. 309-314; Alfred J. Kolb, Paul V. Kaplita, David J. Hayes, Young-Whan Park, Christine Pernell, John S. Major and Gerard Mathis, Drug Discovery Today, 1998, 3, 333-342.)
For example for KDR, 7 ng/well of purified enzyme (His6-KDR 789-1354, MW 63 kD) was mixed with 0.5 μM N-biotinylated substrate (Biotin-Ahx-AEEEYFFLA-amide (SEQ. ID. 1)), various concentrations of inhibitor in reaction buffer (50 mM HEPES, pH 7.1, 10 mM MgCl2, 2 mM MnCl2, 0.1% BSA and 1 mM DTT, 40 L final volume), ATP (1 mM final conc.) in a black 384-well plate. After 60 minutes incubation at room temperature, the reaction was quenched by addition of a buffered EDTA solution (final approximate concentrations: 30 mM EDTA, 0.1% BSA, 0.1% Triton X-100 and 0.24M KF) and a solution of revelation agents (to give 0.084 ng/well streptavidin-XL-665 (Cis-Bio) and 6.5 ng/well antiphsophotyrosine mAb PT66-K Europium kryptate) was added to the reaction mixture. The quenched reaction was allowed to stand at room temperature for 3 hours and was then read in a time-resolved fluorescence detector (InVision, Perkin-Elmer) at 620 nm and 665 nm sequentially with excitation. The ratio between the signal of 620 nm and 665 nm was used in the calculation of the IC50.

Aurora B = biological target: T1, Aurora B (Homo sapiens, UniProt Q96GD4); test: Aurora B enzyme inhibition (time-resolved fluorescence, histone H3 peptide); conditions: 1 mM ATP
T1 construct: Active Aurora B enzyme (recombinant residues 1-344)
T1 sequence (Q96GD4 whole entry, the tested form may be a part): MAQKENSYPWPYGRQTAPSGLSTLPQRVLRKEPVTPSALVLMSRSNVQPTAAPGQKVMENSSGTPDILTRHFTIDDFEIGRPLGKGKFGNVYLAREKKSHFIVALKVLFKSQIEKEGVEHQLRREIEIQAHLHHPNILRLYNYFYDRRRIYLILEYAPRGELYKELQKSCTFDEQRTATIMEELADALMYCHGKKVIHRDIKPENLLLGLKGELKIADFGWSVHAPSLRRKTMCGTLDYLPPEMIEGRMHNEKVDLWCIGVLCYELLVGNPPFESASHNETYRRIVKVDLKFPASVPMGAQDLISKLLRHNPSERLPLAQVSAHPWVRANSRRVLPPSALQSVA
T1 sequence (Q9NQS7 826-918 partner limits assumed): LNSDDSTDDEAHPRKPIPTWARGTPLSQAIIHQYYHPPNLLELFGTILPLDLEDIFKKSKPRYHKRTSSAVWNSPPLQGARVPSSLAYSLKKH
Protocol: To determine Aurora B activity of representative compounds of the invention, Active Aurora B enzyme (recombinant residues 1-344) and INCENP (recombinant GST fusion protein (Upstate)) were incubated in wells of a 384 well plate with biotinylated histone H3 peptide residues 1-21 (Upstate), 1 mM ATP, and various concentrations of inhibitors in a HEPES buffer, pH 7.4 containing MgCl2, sodium othrovanadate, and Triton X-100. After 1 hour, the reaction was stopped with EDTA and anti-phospho-histone H3 Europium Cryptate (Cis-Bio) and SA-APC (Phycolink, Prozyme) were added to detect the phosphopeptide. The amount of phosphorylation was determined by the time-resolved fluorescence ratio of signals at 665 nm and 615 nm. The IC50's were calculated by an exponential fit of the inhibition values with the inhibitor concentrations using Assay Explorer software.

Aurora A = biological target: T2, Aurora A (Homo sapiens, UniProt O14965); test: Aurora A enzyme inhibition (time-resolved fluorescence, STK substrate-2); conditions: 1 mM ATP
T2 sequence (O14965 1-403): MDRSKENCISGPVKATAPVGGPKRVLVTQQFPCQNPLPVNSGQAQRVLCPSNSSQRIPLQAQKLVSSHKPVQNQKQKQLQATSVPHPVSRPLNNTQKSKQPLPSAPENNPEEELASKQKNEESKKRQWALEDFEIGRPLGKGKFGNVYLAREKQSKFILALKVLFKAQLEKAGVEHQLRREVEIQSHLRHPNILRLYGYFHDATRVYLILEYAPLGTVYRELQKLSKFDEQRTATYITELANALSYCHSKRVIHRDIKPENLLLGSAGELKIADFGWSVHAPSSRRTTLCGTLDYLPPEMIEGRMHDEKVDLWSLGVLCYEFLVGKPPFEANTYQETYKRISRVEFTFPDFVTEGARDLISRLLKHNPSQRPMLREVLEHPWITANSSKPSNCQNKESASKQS
Protocol: To determine Aurora A and C activity of representative compounds of the invention, Active Aurora A or C enzyme was incubated in wells of a 384 well plate with biotinylated STK substrate-2 (Upstate), 1 mM ATP, and various concentrations of inhibitors in a Hepes buffer, pH 7.4 containing MgCl2, sodium othrovanadate, and Triton X-100. After 1 hour, the reaction was stopped with EDTA and anti-phospho-STK antibody Europium Cryptate (Upstate) and SA-XL665 (Upstate) were added to detect the phosphopeptide. The amount of phosphorylation was determined by the time-resolved fluorescence ratio of signals at 665 nm and 615 nm. The IC50s were calculated by an exponential fit of the inhibition values with the inhibitor concentrations using Assay Explorer software.

KDR, sequence (P35968 789-1354): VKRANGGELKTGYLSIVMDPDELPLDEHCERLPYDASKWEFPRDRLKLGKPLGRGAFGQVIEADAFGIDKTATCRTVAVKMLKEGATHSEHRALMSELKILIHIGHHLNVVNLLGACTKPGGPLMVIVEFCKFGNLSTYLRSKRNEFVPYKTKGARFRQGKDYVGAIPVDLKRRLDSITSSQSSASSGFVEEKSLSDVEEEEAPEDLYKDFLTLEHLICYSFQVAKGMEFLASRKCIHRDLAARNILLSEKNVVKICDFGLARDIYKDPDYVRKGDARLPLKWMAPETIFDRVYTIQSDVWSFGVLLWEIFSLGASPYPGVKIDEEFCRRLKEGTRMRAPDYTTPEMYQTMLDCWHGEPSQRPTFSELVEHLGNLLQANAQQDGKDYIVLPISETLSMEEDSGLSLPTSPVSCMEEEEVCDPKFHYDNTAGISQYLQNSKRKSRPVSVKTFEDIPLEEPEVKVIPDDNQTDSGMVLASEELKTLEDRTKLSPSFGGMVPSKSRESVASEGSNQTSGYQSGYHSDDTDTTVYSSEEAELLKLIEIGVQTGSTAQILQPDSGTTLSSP

Row | Ki (KDR) [µM] | Ki (Aurora B) [µM] | Ki (Aurora A) [µM] | SMILES
1 | < 0.1 | < 0.1 | < 0.1 | NC(=O)[C@@H]1[C@H](Nc2nc(Nc3cnn(CCN4CCCC4)c3)ncc2F)[C@H]2C=C[C@@H]1C2.NC(=O)[C@H]1[C@@H](Nc2nc(Nc3cnn(CCN4CCCC4)c3)ncc2F)[C@@H]2C=C[C@H]1C2 (mixture of isomers) [Example 45, (1S,2S,3R,4R)-3-[(5-fluoro-2-{[1-(2-pyrrolidin-1-ylethyl)-1H-pyrazol-4-yl]amino}pyrimidin-4-yl)amino]bicyclo[2.2.1]hept-5-ene-2-carboxamide and (1R,2R,3S,4S)-3-[(5-fluoro-2-{[1-(2-pyrrolidin-1-ylethyl)-1H-pyrazol-4-yl]amino}pyrimidin-4-yl)amino]bicyclo[2.2.1]hept-5-ene-2-carboxamide]
2 | < 0.1 | < 0.1 | < 0.1 | CNC(=O)[C@@H]1[C@H](Nc2nc(Nc3cnn(C)c3)ncc2C(F)(F)F)[C@H]2C=C[C@@H]1C2.CNC(=O)[C@H]1[C@@H](Nc2nc(Nc3cnn(C)c3)ncc2C(F)(F)F)[C@@H]2C=C[C@H]1C2 (mixture of isomers) [Example 47, (1S,2S,3R,4R)—N-methyl-3-{[2-[(1-methyl-1H-pyrazol-4-yl)amino]-5-(trifluoromethyl)pyrimidin-4-yl]amino}bicyclo[2.2.1]hept-5-ene-2-carboxamide and (1R,2R,3S,4S)—N-methyl-3-{[2-[(1-methyl-1H-pyrazol-4-yl)amino]-5-(trifluoromethyl)pyrimidin-4-yl]amino}bicyclo[2.2.1]hept-5-ene-2-carboxamide]
3 | < 0.1 | < 0.1 | < 0.1 | CNC(=O)[C@@H]1[C@H](Nc2nc(Nc3cnn(C)c3)ncc2Br)[C@H]2C=C[C@@H]1C2.CNC(=O)[C@H]1[C@@H](Nc2nc(Nc3cnn(C)c3)ncc2Br)[C@@H]2C=C[C@H]1C2 (mixture of isomers) [Example 48, (1S,2S,3R,4R)-3-({5-bromo-2-[(1-methyl-1H-pyrazol-4-yl)amino]pyrimidin-4-yl}amino)-N-methylbicyclo[2.2.1]hept-5-ene-2-carboxamide and (1R,2R,3S,4S)-3-({5-bromo-2-[(1-methyl-1H-pyrazol-4-yl)amino]pyrimidin-4-yl}amino)-N-methylbicyclo[2.2.1]hept-5-ene-2-carboxamide]
4 | < 0.1 | < 0.1 | < 0.1 | CCn1cc(Nc2ncc(Br)c(N[C@@H]3[C@H](C(=O)NC)[C@H]4C=C[C@@H]3C4)n2)cn1.CCn1cc(Nc2ncc(Br)c(N[C@H]3[C@@H](C(=O)NC)[C@@H]4C=C[C@H]3C4)n2)cn1 (mixture of isomers) [Example 49, (1S,2S,3R,4R)-3-({5-bromo-2-[(1-ethyl-1H-pyrazol-4-yl)amino]pyrimidin-4-yl}amino)-N-methylbicyclo[2.2.1]hept-5-ene-2-carboxamide and (1R,2R,3S,4S)-3-({5-bromo-2-[(1-ethyl-1H-pyrazol-4-yl)amino]pyrimidin-4-yl}amino)-N-methylbicyclo[2.2.1]hept-5-ene-2-carboxamide]
5 | < 0.1 | < 0.1 | < 0.1 | CCn1cc(Nc2ncc(Cl)c(N[C@@H]3[C@H](C(=O)NC)[C@H]4C=C[C@@H]3C4)n2)cn1.CCn1cc(Nc2ncc(Cl)c(N[C@H]3[C@@H](C(=O)NC)[C@@H]4C=C[C@H]3C4)n2)cn1 (mixture of isomers) [Example 51, (1S,2S,3R,4R)-3-({5-chloro-2-[(1-ethyl-1H-pyrazol-4-yl)amino]pyrimidin-4-yl}amino)-N-methylbicyclo[2.2.1]hept-5-ene-2-carboxamide and (1R,2R,3S,4S)-3-({5-chloro-2-[(1-ethyl-1H-pyrazol-4-yl)amino]pyrimidin-4-yl}amino)-N-methylbicyclo[2.2.1]hept-5-ene-2-carboxamide]
6 | < 0.1 | < 0.1 | < 0.1 | COc1cnc(Nc2cnn(C)c2)nc1NC1C2C=CC(C2)C1C(N)=O (mixture of isomers) [Example 52, (1S,2S,3R,4R)-3-({5-methoxy-2-[(1-methyl-1H-pyrazol-4-yl)amino]pyrimidin-4-yl}amino)bicyclo[2.2.1]hept-5-ene-2-carboxamide and (1R,2R,3S,4S)-3-({5-methoxy-2-[(1-methyl-1H-pyrazol-4-yl)amino]pyrimidin-4-yl}amino)bicyclo[2.2.1]hept-5-ene-2-carboxamide]
7 | < 0.1 | < 0.1 | < 0.1 | CCn1cc(Nc2ncc(OC)c(NC3C4C=CC(C4)C3C(N)=O)n2)cn1 (mixture of isomers) [Example 53, (1S,2S,3R,4R)-3-({2-[(1-ethyl-1H-pyrazol-4-yl)amino]-5-methoxypyrimidin-4-yl}amino)bicyclo[2.2.1]hept-5-ene-2-carboxamide and (1R,2R,3S,4S)-3-({2-[(1-ethyl-1H-pyrazol-4-yl)amino]-5-methoxypyrimidin-4-yl}amino)bicyclo[2.2.1]hept-5-ene-2-carboxamide]
8 | < 0.1 | < 0.1 | < 0.1 | CN(C)C(=O)Cn1cc(Nc2ncc(Cl)c(N[C@@H]3[C@H](C(N)=O)[C@H]4C=C[C@@H]3C4)n2)cn1.CN(C)C(=O)Cn1cc(Nc2ncc(Cl)c(N[C@H]3[C@@H](C(N)=O)[C@@H]4C=C[C@H]3C4)n2)cn1 (mixture of isomers) [Example 54, (1S,2S,3R,4R)-3-{[5-chloro-2-({1-[2-(dimethylamino)-2-oxoethyl]-1H-pyrazol-4-yl}amino)pyrimidin-4-yl]amino}bicyclo[2.2.1]hept-5-ene-2-carboxamide and (1R,2R,3S,4S)-3-{[5-chloro-2-({1-[2-(dimethylamino)-2-oxoethyl]-1H-pyrazol-4-yl}amino)pyrimidin-4-yl]amino}bicyclo[2.2.1]hept-5-ene-2-carboxamide]
9 | < 0.1 | < 0.1 | < 0.1 | CC(C)OC(=O)Cn1cc(Nc2ncc(Br)c(N[C@@H]3[C@H](C(N)=O)[C@H]4C=C[C@@H]3C4)n2)cn1.CC(C)OC(=O)Cn1cc(Nc2ncc(Br)c(N[C@H]3[C@@H](C(N)=O)[C@@H]4C=C[C@H]3C4)n2)cn1 (mixture of isomers) [Example 55, isopropyl{4-[(4-{[(1S,2S,3R,4R)-3-(aminocarbonyl)bicyclo[2.2.1]hept-5-ene-2-yl]amino}-5-bromopyrimidin-2-yl)amino]-1H-pyrazol-1-yl}acetate and isopropyl{4-[(4-{[(1R,2R,3S,4S)-3-(aminocarbonyl)bicyclo[2.2.1]hept-5-ene-2-yl]amino}-5-bromopyrimidin-2-yl)amino]-1H-pyrazol-1-yl}acetate]
10 | < 0.1 | < 0.1 | < 0.1 | Cn1cc(Nc2ncc(Cl)c(N[C@@H]3[C@H]4CC[C@H](C4)[C@@H]3C(N)=O)n2)cn1.Cn1cc(Nc2ncc(Cl)c(N[C@H]3[C@@H]4CC[C@@H](C4)[C@H]3C(N)=O)n2)cn1 (mixture of isomers) [Example 56, (1R,2S,3R,4S)-3-({5-chloro-2-[(1-methyl-1H-pyrazol-4-yl)amino]pyrimidin-4-yl}amino)bicyclo[2.2.1]heptane-2-carboxamide and (1S,2R,3S,4R)-3-({5-chloro-2-[(1-methyl-1H-pyrazol-4-yl)amino]pyrimidin-4-yl}amino)bicyclo[2.2.1]heptane-2-carboxamide]
